Test results reported in the RepoRT retention time repository.

test: RP, Waters ACQUITY UPLC HSS T3, 0.1 mL/min; A: water + 0.01% formic acid; B: acetonitrile + 0.01% formic acid; gradient (min/%B) 0/10 38/45 45/45 55/0 60/0; settings: stereoisomer not certain

CNC(=O)Nc1ccc(Cl)c(Cl)c1 [1-(3,4-Dichlorophenyl)-3-methylurea] and NC(=O)Nc1ccc(Cl)c(Cl)c1 [1-(3,4-Dichlorophenyl)urea] are within 1.5-fold of each other in LC retention time: 20.5 min for the first, 16.9 min for the second.

First: Cc1cc(Cl)ccc1OCC(=O)O [2,4-mcpa]
Second: CC(Oc1ccc(Cl)cc1Cl)C(=O)O (stereo not drawn) [Dichlorprop]
The LC retention time of the first is 1.7-fold higher: 17.2 min for the first, 10 min for the second.

Compared with Oc1ccccc1-c1ccccc1 [2-Phenylphenol], NC(=O)N1c2ccccc2C=Cc2ccccc21 [Carbamazepine] is 1.7-fold lower in LC retention time: 30.2 min for the first, 18 min for the second.

Compared with Cc1ccc(C(=O)O)c(Cl)c1 [2-chloro-4-methylbenzoic acid], Cc1ccc(NC(=O)N(C)C)cc1Cl [Chlortoluron] is 2.2-fold lower in LC retention time: 44.3 min for the first, 20.5 min for the second.

Compared with Nc1ccc(O)cc1 [4-Aminophenol], Nc1ccccc1 [Aniline] is 2.4-fold higher in LC retention time: 1.3 min for the first, 3.1 min for the second.

NCCc1c[nH]c2ccc(O)cc12 [5-Hydroxytryptamine] and O=C(O)Cc1c[nH]c2ccc(O)cc12 [Hydroxyindoleacetic acid] are within 1.5-fold of each other in LC retention time: 4.3 min for the first, 5.71 min for the second.

CCOCN(C(=O)CCl)c1c(C)cccc1CC [Acetochlor] and CCc1cccc(CC)c1N(COC)C(=O)CCl [Alachlor] are within 1.5-fold of each other in LC retention time: 40.6 min for the first, 39.4 min for the second.

Going from CC(=O)OCC[N+](C)(C)C [Acetylcholine] to COCC(C)N(C(=O)CCl)c1c(C)csc1C (stereo not drawn) [Dimethenamid], the LC retention time rises from 1.39 min to 32.5 min (23-fold).

First: CC(=O)Oc1ccccc1C(=O)O [Acetylsalicylic acid]
Second: CC(C(=O)O)c1cccc(C(=O)c2ccccc2)c1 (stereo not drawn) [Ketoprofen]
The LC retention time of the first is 3.3-fold lower: 8.55 min for the first, 28.3 min for the second.

Compared with COc1cc2c(c3oc(=O)c4c(c13)CCC4=O)C1C=COC1O2 (stereo not drawn) [Aflatoxin B1], COc1ccc2c3c1OC1C(O)C=CC4C(C2)N(C)CCC341 (stereo not drawn) [Codeine] is 3.4-fold lower in LC retention time: 17.5 min for the first, 5.12 min for the second.

CC12CCC(=O)C=C1CCC1C2C(O)CC2(C=O)C(C(=O)CO)CCC12 (stereo not drawn) [Aldosterone] and CC12CCC(=O)C=C1CCC1C2C(O)CC2(C)C1CCC2(O)C(=O)CO (stereo not drawn) [Hydrocortisone] are within 1.5-fold of each other in LC retention time: 13.8 min for the first, 15.9 min for the second.

CC(=O)C1CCC2C3CCC4CC(O)CCC4(C)C3CCC12C (stereo not drawn) [Allopregnanolone] and CC12CCC3C(CC=C4CC(O)CCC43C)C1CCC2=O (stereo not drawn) [Dehydroepiandrosterone] are within 1.5-fold of each other in LC retention time: 43.9 min for the first, 31.7 min for the second.

CCNc1nc(NC(C)C)nc(SC)n1 [Ametryn] and CSc1nc(NC2CC2)nc(NC(C)(C)C)n1 [Irgarol] are within 1.5-fold of each other in LC retention time: 20.1 min for the first, 29.9 min for the second.

COc1cc(OC)nc(NC(=O)NS(=O)(=O)N(C)S(C)(=O)=O)n1 [Amidosulfuron] and COC(=O)c1ccc(CNS(C)(=O)=O)cc1S(=O)(=O)NC(=O)Nc1nc(OC)cc(OC)n1 [Mesosulfuron-methyl] are within 1.5-fold of each other in LC retention time: 21.2 min for the first, 26.6 min for the second.

Nc1nc2ccccc2[nH]1 [Aminobenzimidazole] and COC(=O)Nc1nc2ccccc2[nH]1 [Carbendazim] are within 1.5-fold of each other in LC retention time: 4.74 min for the first, 5.69 min for the second.

Compared with CC12CCC3C(CCC4=CC(=O)CCC43C)C1CCC2=O (stereo not drawn) [Androstenedione], CC12CCC(=O)C=C1CCC1C2C(=O)CC2(C)C1CCC2(O)C(=O)CO (stereo not drawn) [Cortisone] is 2-fold lower in LC retention time: 31.5 min for the first, 16.1 min for the second.

CCCCCC=CCC=CCC=CCC=CCCCC(=O)O [Arachidonic Acid] and CCCCCC=CCC(O)C=CC=CC=CC(O)CCCC(=O)O (stereo not drawn) [Leukotriene B4] are within 1.5-fold of each other in LC retention time: 47 min for the first, 39.5 min for the second.

Going from CCNc1nc(N)nc(Cl)n1 [Atrazine-desisopropyl] to Nc1c(Cl)c(F)nc(OCC(=O)O)c1Cl [Fluroxypyr], the LC retention time rises from 6.98 min to 14.4 min (2.1-fold).

COC=C(C(=O)OC)c1ccccc1Oc1cc(Oc2ccccc2C#N)ncn1 [Azoxystrobin] and CSC1=NC(C)(c2ccccc2)C(=O)N1Nc1ccccc1 (stereo not drawn) [Fenamidone] are within 1.5-fold of each other in LC retention time: 38 min for the first, 35.8 min for the second.

Compared with CCC(Oc1ccc(F)c(C(F)(F)F)c1)C(=O)NCc1ccccc1 (stereo not drawn) [Beflubutamid], CNCCC(Oc1ccc(C(F)(F)F)cc1)c1ccccc1 (stereo not drawn) [Fluoxetine] is 1.8-fold lower in LC retention time: 42.7 min for the first, 23.7 min for the second.

Cn1cc(C(=O)Nc2ccc(F)cc2-c2ccc(Cl)c(Cl)c2)c(C(F)F)n1 [Bixafen] and O=C(Nc1ccccc1-c1ccc(Cl)cc1)c1cccnc1Cl [Boscalid] are within 1.5-fold of each other in LC retention time: 42.2 min for the first, 38 min for the second.

First: CCC(C)n1c(=O)[nH]c(C)c(Br)c1=O (stereo not drawn) [Bromacil]
Second: Cn1c(=O)c2c(ncn2C)n(C)c1=O [Caffeine]
The LC retention time of the first is 2.5-fold higher: 14.3 min for the first, 5.71 min for the second.

Compared with CCNC(=O)C(C)OC(=O)Nc1ccccc1 (stereo not drawn) [Carbetamide], O=C(O)Cc1ccccc1Nc1c(Cl)cccc1Cl [Diclofenac] is 2.9-fold higher in LC retention time: 13.5 min for the first, 39.6 min for the second.

CNC(=O)Oc1cccc2c1OC(C)(C)C2 [Carbofuran] and CNC(=O)N(C)c1nc2ccccc2s1 [Methabenzthiazuron] are within 1.5-fold of each other in LC retention time: 18.6 min for the first, 19.4 min for the second.

CNC(=O)c1cc(Cl)cc(C)c1NC(=O)c1cc(Br)nn1-c1ncccc1Cl [Chlorantraniliprole] and CC(C)NC(=O)N1CC(=O)N(c2cc(Cl)cc(Cl)c2)C1=O [Iprodione] are within 1.5-fold of each other in LC retention time: 30.9 min for the first, 39.9 min for the second.

Nc1cnn(-c2ccccc2)c(=O)c1Cl [Chloridazon] and Cc1nnc(-c2ccccc2)c(=O)n1N [Metamitron] are within 1.5-fold of each other in LC retention time: 9.25 min for the first, 8.55 min for the second.

COP(=S)(OC)Oc1nc(Cl)c(Cl)cc1Cl [Chlorpyrifos-methyl] and CCOP(=S)(OCC)Oc1nc(Cl)c(Cl)cc1Cl [Chlorpyrifos] are within 1.5-fold of each other in LC retention time: 43.9 min for the first, 45.5 min for the second.

CNC(=N[N+](=O)[O-])NCc1cnc(Cl)s1 [Clothianidin] and O=[N+]([O-])/N=C1\NCCN1Cc1ccc(Cl)nc1 [Imidacloprid] are within 1.5-fold of each other in LC retention time: 7.99 min for the first, 8.57 min for the second.

First: CN1C(=O)CCC1c1ccc[n+](C2OC(C(=O)[O-])C(O)C(O)C2O)c1 (stereo not drawn) [Cotinine glucuronide]
Second: CN1C(=O)CCC1c1cccnc1 (stereo not drawn) [Cotinine]
The LC retention time of the first is 3.1-fold lower: 1.4 min for the first, 4.31 min for the second.

Cc1cc(C2CC2)nc(Nc2ccccc2)n1 [Cyprodinil] and CNC1=C(c2cccc(C(F)(F)F)c2)C(=O)C(c2ccccc2)O1 (stereo not drawn) [Flurtamone] are within 1.5-fold of each other in LC retention time: 33.2 min for the first, 34.1 min for the second.

CCOP(=S)(OCC)Oc1cc(C)nc(C(C)C)n1 [Diazinon] and CCOC(=O)CC(SP(=S)(OC)OC)C(=O)OCC (stereo not drawn) [Malathion] are within 1.5-fold of each other in LC retention time: 43.4 min for the first, 40.8 min for the second.

COc1ccc(C(=CC(=O)N2CCOCC2)c2ccc(Cl)cc2)cc1OC [Dimethomorph] and CCC(C)(CC)c1cc(NC(=O)c2c(OC)cccc2OC)on1 [Isoxaben] are within 1.5-fold of each other in LC retention time: 32.7 min for the first, 39 min for the second.

Compared with COP(=S)(S)OC [Dimethyldithiophosphate], CON(C)C(=O)Nc1ccc(Cl)c(Cl)c1 [Linuron] is 11-fold higher in LC retention time: 2.95 min for the first, 31.7 min for the second.

CN(C)C(=O)Nc1ccc(Cl)c(Cl)c1 [Diuron] and CC(C)c1ccc(NC(=O)N(C)C)cc1 [Isoproturon] are within 1.5-fold of each other in LC retention time: 23.7 min for the first, 23.4 min for the second.

NCCc1ccc(O)c(O)c1 [Dopamine] and CNCC(O)c1ccc(O)c(O)c1 (stereo not drawn) [Epinephrine] are within 1.5-fold of each other in LC retention time: 3.88 min for the first, 4.39 min for the second.

CC12CCC3c4cc(O)c(O)cc4CCC3C1CCC2O (stereo not drawn) [Estradiol-2-hydroxy] and CC12CCC3c4cc(O)c(O)cc4CCC3C1CCC2=O (stereo not drawn) [Estrone-2-hydroxy] are within 1.5-fold of each other in LC retention time: 21.5 min for the first, 24.6 min for the second.

First: CC12CCC3c4ccc(O)cc4CCC3C1CC(O)C2O (stereo not drawn) [Estriol]
Second: CC12CCC3c4ccc(O)cc4CCC3C1CCC2=O (stereo not drawn) [Estrone]
The LC retention time of the first is 2.7-fold lower: 11.7 min for the first, 31.6 min for the second.

Going from CCS(=O)(=O)c1nnc(N(C)C(=O)NC)s1 [Ethidimuron] to COc1cc(OC)nc(NC(=O)NS(=O)(=O)c2cc(NC=O)ccc2C(=O)N(C)C)n1 [Foramsulfuron], the LC retention time rises from 9.06 min to 17.9 min (2-fold).

First: C#CC1(O)CCC2C3CCc4cc(O)ccc4C3CCC21C (stereo not drawn) [Ethinylestradiol]
Second: CS(=O)(=O)c1ccc(C(=O)C2C(=O)CCCC2=O)c([N+](=O)[O-])c1 [Mesotrione]
The LC retention time of the first is 1.9-fold higher: 31.6 min for the first, 16.5 min for the second.

CC(Cc1ccc(C(C)(C)C)cc1)CN1CCCCC1 (stereo not drawn) [Fenpropidine] and CC(Cc1ccc(C(C)(C)C)cc1)CN1CC(C)OC(C)C1 (stereo not drawn) [Fenpropimorph] are within 1.5-fold of each other in LC retention time: 26.2 min for the first, 30.1 min for the second.

Compared with N#CCNC(=O)c1cnccc1C(F)(F)F [Flonicamid], CS(=O)(=O)c1cc(C(F)(F)F)ccc1C(=O)c1cnoc1C1CC1 [Isoxaflutole] is 4.7-fold higher in LC retention time: 7.52 min for the first, 35.3 min for the second.

CC(C)N(C(=O)COc1nnc(C(F)(F)F)s1)c1ccc(F)cc1 [Flufenacet] and CC(C)Cc1ccc(C(C)C(=O)O)cc1 (stereo not drawn) [Ibuprofen] are within 1.5-fold of each other in LC retention time: 41.1 min for the first, 39.9 min for the second.

First: CCOP(=O)(SC(C)CC)N1CCSC1=O (stereo not drawn) [Fosthiazate]
Second: COCc1cnc(C2=NC(C)(C(C)C)C(=O)N2)c(C(=O)O)c1 (stereo not drawn) [Imazamox]
The LC retention time of the first is 2.4-fold higher: 22.2 min for the first, 9.34 min for the second.

COC(=O)c1ccc(C)cc1C1=NC(C)(C(C)C)C(=O)N1 (stereo not drawn) [Imazamethabenz-methyl] and CC(C)C1(C)N=C(c2nc3ccccc3cc2C(=O)O)NC1=O (stereo not drawn) [Imazaquin] are within 1.5-fold of each other in LC retention time: 14.2 min for the first, 16.3 min for the second.

COC(=O)c1ccc(I)cc1S(=O)(=O)NC(=O)Nc1nc(C)nc(OC)n1 [Iodosulfuron-methyl] and COCC(=O)N(c1c(C)cccc1C)C(C)C(=O)OC (stereo not drawn) [Metalaxyl] are within 1.5-fold of each other in LC retention time: 30.4 min for the first, 24.3 min for the second.

N[C@@H](Cc1cc(I)c(Oc2cc(I)c(O)c(I)c2)c(I)c1)C(=O)O [L-thyroxine] and Cc1cccc(C)c1N(Cn1cccn1)C(=O)CCl [Metazachlore] are within 1.5-fold of each other in LC retention time: 25.6 min for the first, 26.6 min for the second.

Molecule CCCCCC=CCC=CC=CC=CC(SCC(N)C(=O)NCC(=O)O)C(O)CCCC(=O)O (stereo not drawn) [Leukotriene D4] has an LC retention time of 33 min.
